Results taken from patent publication US20240150377A1, “MODULATORS OF CYSTIC FIBROSIS TRANSMEMBRANE CONDUCTANCE REGULATOR” (VERTEX PHARMACEUTICALS INCORPORATED, priority 2020, published 2024).
Like-named read-outs stand apart in the source and are kept apart here.

Target: CFTR (Homo sapiens, UniProt P13569)
Assay: Membrane potential dye, Enteroid Assay B
Format: cell-based
Conditions: for Ent. B Max Activity: chloride transport as % of triple combination control (Enteroid Assay B); for EC50: read-out: Ent. B EC50
Experimental: Base medium (ADF+++) consisted of Advanced DMEM/Ham's F12, 2 mM Glutamax, 10 mM HEPES, […] penicillin/streptomycin.
Intestinal enteroid maintenance medium (IEMM) consisted of ADF+++, 1× B27 supplement, 1× N2 supplement, 1.25 mM N-acetyl cysteine, 10 mM Nicotinamide, 50 ng/mL hEGF, 10 nM Gastrin, 1 μg/mL hR-spondin-1, 100 ng/mL hNoggin, TGF-b type 1 inhibitor A-83-01, 100 μg/mL Primocin, 10 μM P38 MAPK inhibitor SB202190.
Bath 1 Buffer consisted of 1 mM MgCl2, 160 mM NaCl, 4.5 mM KCl, 10 mM HEPES, 10 mM Glucose, 2 mM CaCl2).
Chloride Free Buffer consisted of 1 mM Magnesium Gluconate, 2 mM Calcium Gluconate, 4.5 mM Potassium Gluconate, 160 mM Sodium Gluconate, 10 mM HEPES, 10 mM Glucose.
BathI Dye Solution consisted of Bath 1 Buffer, 0.04% Pluronic F127, 20 μM Methyl Oxonol, 30 μM CaCCinh-A01, 30 μM Chicago Sky Blue.
Chloride Free Dye Solution consisted of Chloride Free Buffer, 0.04% Pluronic F127, 20 μM Methyl Oxonol, 30 μM CaCCinh-A01, 30 μM Chicago Sky Blue.
Chloride Free Dye Stimulation Solution consisted of Chloride Free Dye Solution, 10 μM forskolin, 100 μM IBMX, and 300 nM Compound III.
Human intestinal epithelial enteroid cells were obtained from the Hubrecht Institute for Developmental Biology and Stem Cell Research, Utrecht, The Netherlands and expanded in T-Flasks as previously described (Dekkers J F, Wiegerinck C L, de Jonge H R, Bronsveld I, Janssens H M, de Winter-de Groot K M, Brandsma A M, de Jong N W M, Bijvelds M J C, Scholte B J, Nieuwenhuis E E S, van den Brink S, Clevers H, van der Ent C K, Middendorp S and M Beekman J M. A functional CFTR assay using primary cystic fibrosis intestinal organoids. Nat Med. 2013 July;19(7):939-45.).
3. Enteroid Cell Harvesting and Seeding
Cells were recovered in cell recovery solution, collected by centrifugation at 650 rpm for 5 min at 4° C., resuspended in TrypLE and incubated for 5 min at 37° C. Cells were then collected by centrifugation at 650 rpm for 5 min at 4° C. and resuspended in IEMM containing 10 μM ROCK inhibitor (RI). The cell suspension was passed through a 40 μm cell strainer and resuspended at 1×10^6 cells/mL in IEMM containing 10 μM RI. Cells were seeded at 5000 cells/well into multi-well plates and incubated for overnight at 37° C., 95% humidity and 5% CO2 prior to assay.
5. Membrane Potential Dye, Enteroid Assay B
Enteroid cells were incubated with test compound in IEMM for 18-24 hours at 37° C., 95% humidity and 5% CO2. […] Briefly, cells were washed 5 times in Bath 1 Buffer. Bath 1 Dye Solution was added and the cells were incubated for 25 min at room temperature. Following dye incubation, cells were washed 3 times in Chloride Free Dye Solution. Chloride transport was initiated by addition of Chloride Free Dye Stimulation Solution and the fluorescence signal was read for 15 min. […] Chloride transport was then expressed as a percentage of the chloride transport following treatment with 1 μM (14S)-8-[3-(2-{Dispiro[2.0.2.1]heptan-7-yl}ethoxy)-1H-pyrazol-1-yl]-12,12-dimethyl-2λ^6-thia-3,9,11,18,23-pentaazatetracyclo[17.3.1.111,14.05,10]tetracosa-1(22),5,7,9,19(23),20-hexaene-2,2,4-trione, 3 μM (R)-1-(2,2-difluorobenzo[d][1,3]dioxol-5-yl)-N-(1-(2,3-dihydroxypropyl)-6-fluoro-2-(1-hydroxy-2-methylpropan-2-yl)-1H-indol-5-yl)cyclopropanecarboxamide and 300 nM acute N-[2,4-bis(1,1-dimethylethyl)-5-hydroxyphenyl]-1,4-dihydro-4-oxoquinoline-3-carboxamide triple combination control (% Activity).

[1] = Table 8, human enteroid cells, 18-24 hours, acute 10 μM forskolin and 300 nM ivacaftor

Sequence of CFTR (P13569 with tags, fused parts or gaps DEL508-508): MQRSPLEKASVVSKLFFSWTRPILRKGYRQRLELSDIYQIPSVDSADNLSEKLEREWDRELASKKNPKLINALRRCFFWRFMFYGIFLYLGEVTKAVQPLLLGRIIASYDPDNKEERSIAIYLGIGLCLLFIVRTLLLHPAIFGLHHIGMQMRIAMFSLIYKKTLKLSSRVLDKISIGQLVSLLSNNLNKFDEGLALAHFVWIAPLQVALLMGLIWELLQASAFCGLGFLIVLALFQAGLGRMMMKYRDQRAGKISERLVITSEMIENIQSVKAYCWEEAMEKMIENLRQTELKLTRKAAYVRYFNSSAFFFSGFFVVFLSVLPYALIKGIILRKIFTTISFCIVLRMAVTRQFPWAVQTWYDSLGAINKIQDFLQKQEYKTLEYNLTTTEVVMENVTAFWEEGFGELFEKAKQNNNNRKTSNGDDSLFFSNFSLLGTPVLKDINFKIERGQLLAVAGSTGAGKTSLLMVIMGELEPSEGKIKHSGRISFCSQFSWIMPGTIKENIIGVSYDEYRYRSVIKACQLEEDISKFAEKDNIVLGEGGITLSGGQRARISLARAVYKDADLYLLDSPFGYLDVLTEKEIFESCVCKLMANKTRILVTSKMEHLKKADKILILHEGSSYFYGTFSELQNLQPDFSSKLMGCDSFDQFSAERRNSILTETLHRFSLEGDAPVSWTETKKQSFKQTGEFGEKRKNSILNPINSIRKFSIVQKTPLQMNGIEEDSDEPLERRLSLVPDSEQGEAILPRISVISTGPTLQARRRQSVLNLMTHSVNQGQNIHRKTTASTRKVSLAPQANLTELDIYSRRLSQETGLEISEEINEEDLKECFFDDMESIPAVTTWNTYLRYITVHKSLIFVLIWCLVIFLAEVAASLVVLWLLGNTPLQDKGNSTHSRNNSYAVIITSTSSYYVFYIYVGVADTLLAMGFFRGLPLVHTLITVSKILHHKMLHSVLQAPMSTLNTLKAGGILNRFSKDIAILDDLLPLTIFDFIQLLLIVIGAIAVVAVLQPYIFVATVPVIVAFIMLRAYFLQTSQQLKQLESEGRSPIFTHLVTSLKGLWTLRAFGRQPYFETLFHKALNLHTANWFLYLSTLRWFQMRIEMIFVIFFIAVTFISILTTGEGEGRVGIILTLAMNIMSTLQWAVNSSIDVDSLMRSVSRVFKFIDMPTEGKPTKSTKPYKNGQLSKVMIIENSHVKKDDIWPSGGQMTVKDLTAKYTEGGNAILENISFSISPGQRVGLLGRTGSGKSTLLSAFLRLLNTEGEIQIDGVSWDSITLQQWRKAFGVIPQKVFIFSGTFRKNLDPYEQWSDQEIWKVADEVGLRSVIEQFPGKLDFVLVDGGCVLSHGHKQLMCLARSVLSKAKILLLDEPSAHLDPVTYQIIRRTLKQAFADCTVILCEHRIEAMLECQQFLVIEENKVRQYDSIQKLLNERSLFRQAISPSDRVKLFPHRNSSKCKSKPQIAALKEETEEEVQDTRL

Ent. B Max Activity (Table 8) | EC50 [1] | Ent. B Max Activity (%) (Table 9) | EC50 (Table 9) | SMILES | also measured
+++ (+++ is >60%) | < 1 µM | – | – | Cc1cccc(C)c1-c1cc2nc(n1)NS(=O)(=O)c1cccc(c1)C(=O)N(CC1Cc3ccccc3C1)[C@H](CC(C)(C)C)CO2 [Compound 808] | –
+++ (+++ is >60%) | < 1 µM | – | – | Cc1cccc(C)c1-c1cc2nc(n1)NS(=O)(=O)c1cccc(c1)C(=O)N(Cc1cnccn1)[C@H](CC(C)(C)C)CO2 [Compound 1100] | –
+++ (+++ is >60%) | < 1 µM | – | – | Cc1cccc(C)c1-c1cc2nc(n1)NS(=O)(=O)c1cccc(c1)C(=O)N(Cc1cncnc1)[C@H](CC(C)(C)C)CO2 [Compound 1095] | –
+++ (+++ is >60%) | < 1 µM | – | – | Cc1cccc(C)c1-c1cc2nc(n1)NS(=O)(=O)c1cccc(c1)C(=O)N(Cc1ccncn1)[C@H](CC(C)(C)C)CO2 [Compound 1098] | –
+++ (+++ is >60%) | < 1 µM | – | – | Cc1cccc(C)c1-c1cc2nc(n1)NS(=O)(=O)c1cccc(c1)C(=O)N(CC1CC(C(C)(C)O)C1)[C@H](CC(C)(C)C)CO2 (stereo partly shown) [Compound 1020] | –
+++ (+++ is >60%) | < 1 µM | – | – | Cc1cccc(C)c1-c1cc2nc(n1)NS(=O)(=O)c1cc(n(C)n1)C(=O)N(Cc1cnccn1)[C@H](CC(C)(C)C)CO2 [Compound 921] | –
– | – | +++ (+++ is >600%) | < 1 µM | Cc1cccc(C)c1-c1cc2nc(n1)NS(=O)(=O)c1cccc(c1)C(=O)N(Cc1ncc(Br)cn1)[C@H](CC(C)(C)C)CO2 [Compound 807] | –
+++ (+++ is >60%) | < 1 µM | – | – | Cc1cccc(C)c1-c1cc2nc(n1)NS(=O)(=O)c1cccc(c1)C(=O)N(Cc1ccc(C(C)(C)O)nc1)[C@H](CC(C)(C)C)CO2 [Compound 1089] | –
+++ (+++ is >60%) | < 1 µM | – | – | COc1cnc(CN2C(=O)c3cccc(c3)S(=O)(=O)Nc3nc(cc(-c4c(C)cccc4C)n3)OC[C@H]2CC(C)(C)C)cn1 [Compound 1099] | –
– | – | +++ (+++ is >600%) | < 1 µM | Cc1cnc(CN2C(=O)c3cc(nn3C)S(=O)(=O)Nc3nc(cc(-c4c(C)cccc4C)n3)OC[C@H]2CC(C)(C)C)nc1 [Compound 924] | –
+++ (+++ is >60%) | < 1 µM | – | – | Cc1cccc(C)c1-c1cc2nc(n1)NS(=O)(=O)c1cc(n(C)n1)C(=O)N(Cc1ncccn1)[C@H](CC(C)(C)C)CO2 [Compound 929] | –

The next lines start with the molecule.

SMILES | Ent. B Max Activity (Table 8) | EC50 [1] | Ent. B Max Activity (%) (Table 9) | EC50 (Table 9) | also measured
COC(=O)NCCCN1C(=O)c2cccc(c2)S(=O)(=O)Nc2nc(cc(-c3c(C)cccc3C)n2)OC[C@H]1CC(C)C [Compound 409] | – | – | – | – | Ent. B Max Activity (Table 7): +++ (+++ is >60%); EC50 (Table 7, human enteroid cells, 18-24 hours, acute 10 μM forskolin and 300 nM ivacaftor): < 1 µM
Cc1cccc(C)c1-c1cc2nc(n1)NS(=O)(=O)c1cccc(c1)C(=O)N(Cc1ccn3nccc3c1)[C@H](CC(C)(C)C)CO2 [Compound 791] | – | – | +++ (+++ is >600%) | < 1 µM | –
Cc1cccc(C)c1-c1cc2nc(n1)NS(=O)(=O)c1cccc(c1)C(=O)N(Cc1ccc3c(c1)C(=O)NC3)[C@H](CC(C)(C)C)CO2 [Compound 792] | – | – | +++ (+++ is >600%) | < 1 µM | –
Cc1cccc(C)c1-c1cc2nc(n1)NS(=O)(=O)c1cccc(c1)C(=O)N(C)CC(c1ccc(CC3(C(F)(F)F)CC3)cn1)O2 (stereo not shown) [Compound 336] | +++ (+++ is >60%) | < 1 µM | – | – | –
Cc1cccc(C)c1-c1cc2nc(n1)NS(=O)(=O)c1cccc(c1)C(=O)N(CC1CCC(C)(O)CC1)[C@H](CC(C)(C)C)CO2 (single isomer, unassigned) [Compound 149] | +++ (+++ is >60%) | < 1 µM | – | – | –
Cc1cccc(C)c1-c1cc2nc(n1)NS(=O)(=O)c1cccc(c1)C(=O)N(CCCC(C)(C)O)[C@H](CC(C)(C)O)CO2 [Compound 662] | + (+ is <30%) | 1 to 3 µM | – | – | –
CC(=O)Nc1cccc(CN2C(=O)c3cccc(c3)S(=O)(=O)Nc3nc(cc(-c4c(C)cccc4C)n3)OC[C@H]2CC(C)(C)C)n1 [Compound 391] | – | – | +++ (+++ is >600%) | < 1 µM | –
Cc1cccc(C)c1-c1cc2nc(n1)NS(=O)(=O)c1cccc(c1)C(=O)N(CCS(C)(=O)=O)[C@H](CC(C)C)CO2 [Compound 388] | – | – | +++ (+++ is >600%) | < 1 µM | –
Cc1cccc(C)c1-c1cc2nc(n1)NS(=O)(=O)c1cccc(c1)C(=O)N(Cc1ccc3c(c1)oc(=O)n3C)[C@H](CC(C)(C)C)CO2 [Compound 802] | – | – | +++ (+++ is >600%) | < 1 µM | –
Cc1cccc(C)c1-c1cc2nc(n1)NS(=O)(=O)c1cccc(c1)C(=O)N(CCCS(C)(=O)=O)[C@H](CC(C)C)CO2 [Compound 389] | – | – | +++ (+++ is >600%) | < 1 µM | –
Cc1cccc(C)c1-c1cc2nc(n1)NS(=O)(=O)c1cccc(c1)C(=O)N(CCc1ccc(C(N)=O)cc1)[C@H](CC(C)(C)C)CO2 [Compound 396] | ++ (++ is 30-60%) | < 1 µM | – | – | –
CNC(=O)c1ccc(CCN2C(=O)c3cccc(c3)S(=O)(=O)Nc3nc(cc(-c4c(C)cccc4C)n3)OC[C@H]2CC(C)(C)C)cc1 [Compound 395] | ++ (++ is 30-60%) | < 1 µM | – | – | –
Cc1cccc(C)c1-c1cc2nc(n1)NS(=O)(=O)c1cccc(c1)C(=O)N(CC1CCC(C(C)(C)O)CC1)[C@H](CC(C)(C)C)CO2 (stereo partly shown) [Compound 797] | – | – | +++ (+++ is >600%) | < 1 µM | –
Cc1cccc(C)c1-c1cc2nc(n1)NS(=O)(=O)c1cccc(c1)C(=O)N(C)CC(c1ccc(CC3(C(F)(F)F)CC3)cn1)O2 (single isomer, unassigned) [Compound 105, 6-(2,6-dimethylphenyl)-12-methyl-10-(5-{[1-(trifluoromethyl)cyclopropyl]methyl}pyridin-2-yl)-9-oxa-2λ^6-thia-3,5,12,19-tetraazatricyclo[12.3.1.14,8]nonadeca-1(17),4(19),5,7,14(18),15-hexaene-2,2,13-trione] | + (+ is <30%) | < 1 µM | – | – | –
Cc1cccc(C)c1-c1cc2nc(n1)NSc1cccc(c1)C(=O)N(Cc1ccc(C(C)(C)O)cc1)[C@H](CC(C)(C)C(F)(F)F)CO2 [Compound 321] | – | – | +++ (+++ is >600%) | < 1 µM | –
CNC(=O)c1ccc(CN2C(=O)c3cccc(c3)S(=O)(=O)Nc3nc(cc(-c4c(C)cccc4C)n3)OC[C@H]2CC(C)(C)C)nc1 [Compound 397] | +++ (+++ is >60%) | < 1 µM | – | – | –
Cc1cccc(C)c1-c1cc2nc(n1)NS(=O)(=O)c1cccc(c1)C(=O)N(CC1CCC(C)(O)CC1)[C@H](CC(C)(C)C)CO2 (single isomer, unassigned) [Compound 150] | +++ (+++ is >60%) | < 1 µM | – | – | –
Cc1cccc(C)c1-c1cc2nc(n1)NS(=O)(=O)c1cccc(c1)C(=O)N(Cc1ccc(C(C)(C)O)cc1)[C@H](CCC(C)(C)O)CO2 [Compound 661] | ++ (++ is 30-60%) | 1 to 3 µM | – | – | –
